# Data published in ChEMBL document CHEMBL1138126, “Tyrosine kinase inhibitors. 19. 6-Alkynamides of 4-anilinoquinazolines and 4-anilinopyrido[3,4-d]pyrimidines as irreversible inhibitors of the erbB family of tyrosine kinase receptors” (J Med Chem, 2006).
# pIC50: −log10 of the molar value. Activity calls are given as the source filed them. No cut-off for these calls is given here.
# Experiments:
# [1] = biological target: T1, Receptor tyrosine-protein kinase erbB-2 (Homo sapiens, UniProt P04626)
# T1 sequence (P04626 whole entry): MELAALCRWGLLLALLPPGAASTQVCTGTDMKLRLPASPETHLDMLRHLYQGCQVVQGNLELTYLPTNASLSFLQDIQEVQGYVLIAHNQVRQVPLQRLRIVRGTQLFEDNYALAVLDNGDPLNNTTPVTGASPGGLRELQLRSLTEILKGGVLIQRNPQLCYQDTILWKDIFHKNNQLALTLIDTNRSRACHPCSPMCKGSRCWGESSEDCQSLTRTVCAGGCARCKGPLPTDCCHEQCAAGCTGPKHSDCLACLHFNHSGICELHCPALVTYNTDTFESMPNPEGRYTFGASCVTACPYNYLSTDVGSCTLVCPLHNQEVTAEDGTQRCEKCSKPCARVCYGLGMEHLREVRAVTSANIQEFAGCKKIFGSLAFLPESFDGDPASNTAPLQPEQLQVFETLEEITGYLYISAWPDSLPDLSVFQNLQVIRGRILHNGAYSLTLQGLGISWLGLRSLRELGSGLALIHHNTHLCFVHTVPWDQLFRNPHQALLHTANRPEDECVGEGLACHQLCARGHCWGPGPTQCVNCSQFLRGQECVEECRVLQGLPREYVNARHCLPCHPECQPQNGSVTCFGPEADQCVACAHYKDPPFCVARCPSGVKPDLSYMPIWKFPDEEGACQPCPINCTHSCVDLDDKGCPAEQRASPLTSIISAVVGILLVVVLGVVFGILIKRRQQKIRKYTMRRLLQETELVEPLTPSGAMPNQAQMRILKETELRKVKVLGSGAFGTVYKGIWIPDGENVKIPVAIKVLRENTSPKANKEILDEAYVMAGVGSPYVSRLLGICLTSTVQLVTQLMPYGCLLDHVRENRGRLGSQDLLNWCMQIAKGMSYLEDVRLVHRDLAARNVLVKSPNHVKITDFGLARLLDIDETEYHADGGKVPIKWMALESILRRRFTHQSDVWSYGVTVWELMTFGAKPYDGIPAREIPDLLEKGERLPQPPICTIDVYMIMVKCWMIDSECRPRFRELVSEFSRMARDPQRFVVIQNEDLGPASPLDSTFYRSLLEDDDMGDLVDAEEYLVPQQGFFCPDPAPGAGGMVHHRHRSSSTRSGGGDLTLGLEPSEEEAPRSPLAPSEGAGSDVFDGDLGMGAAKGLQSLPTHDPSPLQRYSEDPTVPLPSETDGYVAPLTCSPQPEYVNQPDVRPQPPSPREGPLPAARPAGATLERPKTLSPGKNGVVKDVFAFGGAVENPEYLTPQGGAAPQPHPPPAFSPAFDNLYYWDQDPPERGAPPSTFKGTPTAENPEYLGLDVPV
# Description: Inhibition of erbB2 fusion protein expressed in baculovirus by ELISA
# [2] = biological target: Receptor tyrosine-protein kinase erbB-4 (Homo sapiens, UniProt Q15303)
# Chain of Receptor tyrosine-protein kinase erbB-4 (Q15303 whole entry): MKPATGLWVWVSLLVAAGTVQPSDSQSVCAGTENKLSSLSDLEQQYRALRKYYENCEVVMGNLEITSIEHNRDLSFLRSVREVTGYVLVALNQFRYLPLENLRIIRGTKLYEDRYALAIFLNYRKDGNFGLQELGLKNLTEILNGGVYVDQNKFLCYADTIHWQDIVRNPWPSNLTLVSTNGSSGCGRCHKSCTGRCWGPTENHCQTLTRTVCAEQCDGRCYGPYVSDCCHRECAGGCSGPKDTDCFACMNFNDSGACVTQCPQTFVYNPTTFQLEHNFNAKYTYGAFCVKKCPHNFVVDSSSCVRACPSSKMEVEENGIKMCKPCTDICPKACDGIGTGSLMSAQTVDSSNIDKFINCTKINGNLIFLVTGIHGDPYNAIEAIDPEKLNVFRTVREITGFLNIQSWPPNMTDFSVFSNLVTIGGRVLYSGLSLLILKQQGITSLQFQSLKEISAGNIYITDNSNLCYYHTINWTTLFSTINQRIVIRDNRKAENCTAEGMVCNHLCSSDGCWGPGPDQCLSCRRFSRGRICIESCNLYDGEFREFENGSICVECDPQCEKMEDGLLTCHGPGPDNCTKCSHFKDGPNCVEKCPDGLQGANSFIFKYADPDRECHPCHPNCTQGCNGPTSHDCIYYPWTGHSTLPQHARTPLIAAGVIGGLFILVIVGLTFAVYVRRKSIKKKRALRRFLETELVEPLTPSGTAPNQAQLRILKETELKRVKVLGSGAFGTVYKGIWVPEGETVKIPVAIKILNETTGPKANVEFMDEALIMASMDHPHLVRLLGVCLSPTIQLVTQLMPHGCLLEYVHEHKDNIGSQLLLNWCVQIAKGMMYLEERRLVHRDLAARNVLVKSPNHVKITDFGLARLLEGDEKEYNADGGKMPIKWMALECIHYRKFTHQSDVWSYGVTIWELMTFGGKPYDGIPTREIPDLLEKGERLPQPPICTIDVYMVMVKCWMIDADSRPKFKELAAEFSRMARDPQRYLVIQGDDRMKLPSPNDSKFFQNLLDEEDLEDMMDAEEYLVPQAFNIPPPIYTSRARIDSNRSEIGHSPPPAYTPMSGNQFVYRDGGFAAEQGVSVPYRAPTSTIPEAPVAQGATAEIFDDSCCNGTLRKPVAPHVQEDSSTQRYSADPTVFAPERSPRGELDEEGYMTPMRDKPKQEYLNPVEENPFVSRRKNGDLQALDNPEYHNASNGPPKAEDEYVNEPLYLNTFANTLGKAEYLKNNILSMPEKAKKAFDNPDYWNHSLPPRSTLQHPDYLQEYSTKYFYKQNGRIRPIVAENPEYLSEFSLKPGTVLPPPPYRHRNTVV
# Description: Inhibition of erbB4 fusion protein expressed in baculovirus by ELISA
# [3] = biological target: T1, Receptor tyrosine-protein kinase erbB-2; remark: listed apart in the source
# Description: Inhibition of HER stimulated human erbB autophosphorylation in MDA-MB-453 cells
# [4] = biological target: T2, Epidermal growth factor receptor (Homo sapiens, UniProt P00533); assay: Inhibition of EGF stimulated human erbB1 autophosphorylation in NIH3T3 cells
# T2 sequence (P00533 whole entry, the tested form may be a part): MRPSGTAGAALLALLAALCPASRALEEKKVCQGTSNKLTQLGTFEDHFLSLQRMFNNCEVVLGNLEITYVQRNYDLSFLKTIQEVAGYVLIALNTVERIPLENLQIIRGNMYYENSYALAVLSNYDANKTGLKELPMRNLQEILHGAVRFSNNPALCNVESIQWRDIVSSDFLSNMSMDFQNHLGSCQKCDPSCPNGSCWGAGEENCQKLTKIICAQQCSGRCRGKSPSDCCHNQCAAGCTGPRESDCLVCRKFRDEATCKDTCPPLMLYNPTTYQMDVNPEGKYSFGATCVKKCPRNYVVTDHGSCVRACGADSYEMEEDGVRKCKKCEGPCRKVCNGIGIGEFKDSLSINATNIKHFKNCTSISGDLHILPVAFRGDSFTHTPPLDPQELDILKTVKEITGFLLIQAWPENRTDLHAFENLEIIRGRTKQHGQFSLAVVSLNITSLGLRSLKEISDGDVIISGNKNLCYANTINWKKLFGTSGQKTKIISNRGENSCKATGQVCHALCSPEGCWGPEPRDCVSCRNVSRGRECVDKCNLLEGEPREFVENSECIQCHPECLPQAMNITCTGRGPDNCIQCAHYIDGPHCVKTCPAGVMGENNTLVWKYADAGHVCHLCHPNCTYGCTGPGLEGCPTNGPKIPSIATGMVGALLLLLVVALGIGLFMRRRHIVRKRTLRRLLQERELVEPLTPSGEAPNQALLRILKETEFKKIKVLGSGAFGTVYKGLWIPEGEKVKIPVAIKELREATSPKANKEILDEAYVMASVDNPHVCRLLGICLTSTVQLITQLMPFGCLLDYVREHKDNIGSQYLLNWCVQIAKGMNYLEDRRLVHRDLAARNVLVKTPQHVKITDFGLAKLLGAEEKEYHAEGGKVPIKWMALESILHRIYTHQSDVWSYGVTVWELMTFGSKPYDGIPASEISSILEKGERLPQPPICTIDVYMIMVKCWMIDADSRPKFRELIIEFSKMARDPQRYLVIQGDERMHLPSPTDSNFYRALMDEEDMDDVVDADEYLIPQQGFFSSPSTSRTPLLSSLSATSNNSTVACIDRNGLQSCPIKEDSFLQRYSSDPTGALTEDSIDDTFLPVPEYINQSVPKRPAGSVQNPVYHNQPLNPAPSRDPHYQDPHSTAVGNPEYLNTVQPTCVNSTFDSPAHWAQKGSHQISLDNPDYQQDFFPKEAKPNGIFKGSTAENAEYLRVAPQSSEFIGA
# [5] = biological target: T2, Epidermal growth factor receptor; assay: Inhibition of erbB1 fusion protein expressed in baculovirus by ELISA
# [6] = Oral bioavailability in rat at 15 mg/kg; format: ADME, organism-based; conditions: in vivo
# Mus musculus [7] = assay: Antitumor activity in NCr nu/nu mice implanted with A431 xenografts at 10 mg/kg, po; format: functional, organism-based; set-up: dose 10 mg/kg
# [8] = AUC(0-tz) in monkey at 30 mg/kg, po; format: ADME, organism-based, Macaca mulatta; set-up: dose 30 mg/kg, route oral; conditions: rhesus monkey, plasma
# [9] = biological target: Fibroblast growth factor receptor (Homo sapiens, UniProt P22607+P11362+P22455+P21802); assay: Inhibition of FGFR; format: protein assay
# [10] = Tmax in monkey at 30 mg/kg, po; format: ADME, organism-based, Macaca mulatta; set-up: dose 30 mg/kg, route oral; conditions: rhesus monkey, in vivo
# [11] = Volume of distribution in dog at 5 mg/kg, iv; format: ADME, organism-based, Canis lupus familiaris; set-up: dose 5 mg/kg, route intravenous; conditions: in vivo, read-out: Vdss
# [12] = biological target: T1, Receptor tyrosine-protein kinase erbB-2; remark: listed apart in the source
# Description: Inhibition of ligand stimulated erbB2 autophosphorylation in T24 NIH cells
# [13] = AUC(0-tz) in rat at 5 mg/kg, iv; format: ADME, organism-based; set-up: dose 5 mg/kg, route intravenous; conditions: plasma
# [14] = Half life in dog at 5 mg/kg, iv; format: ADME, organism-based, Canis lupus familiaris; set-up: dose 5 mg/kg, route intravenous; conditions: in vivo
# [15] = Tmax in dog at 15 mg/kg, po; format: ADME, organism-based, Canis lupus familiaris; set-up: dose 15 mg/kg, route oral; conditions: in vivo
# [16] = Plasma clearance in monkey at 5 mg/kg, iv; format: ADME, organism-based, Macaca mulatta; set-up: dose 5 mg/kg, route intravenous; conditions: rhesus monkey
# [17] = Cmax in dog at 15 mg/kg, po; format: ADME, organism-based, Canis lupus familiaris; set-up: dose 15 mg/kg, route oral; conditions: in vivo
# [18] = Plasma clearance in rat at 5 mg/kg, iv; format: ADME, organism-based; set-up: dose 5 mg/kg, route intravenous
# Insulin receptor = Insulin receptor (Homo sapiens, UniProt P06213); assay: Inhibition of insulin receptor
# Chain of Insulin receptor (P06213 28-758 limits assumed): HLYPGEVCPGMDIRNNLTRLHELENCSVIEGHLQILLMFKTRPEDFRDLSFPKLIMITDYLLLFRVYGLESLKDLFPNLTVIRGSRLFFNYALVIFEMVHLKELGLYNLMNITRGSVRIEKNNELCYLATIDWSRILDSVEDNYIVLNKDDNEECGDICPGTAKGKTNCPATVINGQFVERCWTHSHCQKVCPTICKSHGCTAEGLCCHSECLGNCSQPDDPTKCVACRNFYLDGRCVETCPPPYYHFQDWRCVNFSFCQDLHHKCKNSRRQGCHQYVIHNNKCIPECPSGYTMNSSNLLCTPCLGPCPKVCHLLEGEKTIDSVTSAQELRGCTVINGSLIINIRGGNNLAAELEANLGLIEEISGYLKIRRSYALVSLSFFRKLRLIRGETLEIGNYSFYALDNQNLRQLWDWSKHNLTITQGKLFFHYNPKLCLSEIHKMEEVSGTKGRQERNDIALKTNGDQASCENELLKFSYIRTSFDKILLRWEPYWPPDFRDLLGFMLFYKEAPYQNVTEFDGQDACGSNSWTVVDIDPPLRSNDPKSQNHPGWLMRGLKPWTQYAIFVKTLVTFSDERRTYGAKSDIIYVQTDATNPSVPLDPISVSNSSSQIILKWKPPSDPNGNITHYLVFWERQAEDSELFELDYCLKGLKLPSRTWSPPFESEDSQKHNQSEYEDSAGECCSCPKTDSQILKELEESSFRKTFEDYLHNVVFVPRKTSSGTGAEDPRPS
# Chain of Insulin receptor (P06213 763-1382 limits assumed): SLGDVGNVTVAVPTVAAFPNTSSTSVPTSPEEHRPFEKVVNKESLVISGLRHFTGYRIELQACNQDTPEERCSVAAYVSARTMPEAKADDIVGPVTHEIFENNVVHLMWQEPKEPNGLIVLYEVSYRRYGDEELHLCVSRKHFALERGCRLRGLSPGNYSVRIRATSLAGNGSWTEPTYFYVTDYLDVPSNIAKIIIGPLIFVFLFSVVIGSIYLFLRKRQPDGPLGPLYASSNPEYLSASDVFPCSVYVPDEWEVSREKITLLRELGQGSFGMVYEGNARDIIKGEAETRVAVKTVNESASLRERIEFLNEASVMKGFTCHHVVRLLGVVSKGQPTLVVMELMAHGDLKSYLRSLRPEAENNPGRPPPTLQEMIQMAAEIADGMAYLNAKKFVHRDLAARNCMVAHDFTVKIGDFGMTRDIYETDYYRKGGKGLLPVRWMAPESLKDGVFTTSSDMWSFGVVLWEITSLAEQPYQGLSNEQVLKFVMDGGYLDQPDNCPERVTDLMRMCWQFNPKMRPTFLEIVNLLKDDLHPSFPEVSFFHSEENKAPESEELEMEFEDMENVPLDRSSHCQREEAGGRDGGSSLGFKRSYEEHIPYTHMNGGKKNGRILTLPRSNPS
# [19] = Half life in rat at 5 mg/kg, iv; format: ADME, organism-based; set-up: dose 5 mg/kg, route intravenous; conditions: in vivo
# [20] = Volume of distribution in rat at 5 mg/kg, iv; format: ADME, organism-based; set-up: dose 5 mg/kg, route intravenous; conditions: in vivo, read-out: Vdss
# [21] = AUC(0-tz) in rat at 15 mg/kg, po; format: ADME, organism-based; set-up: dose 15 mg/kg, route oral; conditions: plasma
# [22] = Oral bioavailability in dog at 15 mg/kg; format: ADME, organism-based, Canis lupus familiaris; conditions: in vivo
# [23] = Cmax in rat at 15 mg/kg, po; format: ADME, organism-based; set-up: dose 15 mg/kg, route oral; conditions: in vivo
# [24] = Volume of distribution in monkey at 5 mg/kg, iv; format: ADME, organism-based, Macaca mulatta; set-up: dose 5 mg/kg, route intravenous; conditions: rhesus monkey, in vivo, read-out: Vdss
# [25] = biological target: Platelet-derived growth factor receptor (Homo sapiens, UniProt P09619+P16234); assay: Inhibition of PDGF receptor; format: protein-complex assay
# Mus musculus [26] = assay: Antitumor activity in SCID mice implanted with BXPC3 xenografts at 40 mg/kg, po; format: functional, organism-based; set-up: dose 40 mg/kg; conditions: CB17
# [27] = AUC(0-tz) in dog at 15 mg/kg, po; format: ADME, organism-based, Canis lupus familiaris; set-up: dose 15 mg/kg, route oral; conditions: plasma
# [28] = Plasma clearance in dog at 5 mg/kg, iv; format: ADME, organism-based, Canis lupus familiaris; set-up: dose 5 mg/kg, route intravenous
# [29] = Cmax in monkey at 30 mg/kg, po; format: ADME, organism-based, Macaca mulatta; set-up: dose 30 mg/kg, route oral; conditions: rhesus monkey, in vivo
# [30] = AUC(0-tz) in monkey at 5 mg/kg, iv; format: ADME, organism-based, Macaca mulatta; set-up: dose 5 mg/kg, route intravenous; conditions: rhesus monkey, plasma
# [31] = Half life in monkey at 5 mg/kg, iv; format: ADME, organism-based, Macaca mulatta; set-up: dose 5 mg/kg, route intravenous; conditions: rhesus monkey, in vivo
# Mus musculus [32] = assay: Antitumor activity in SCID mice implanted with SF 767 xenografts at 40 mg/kg, po; format: functional, organism-based; set-up: dose 40 mg/kg; conditions: CB17
# [33] = Oral bioavailability in monkey at 30 mg/kg; format: ADME, organism-based, Macaca mulatta; conditions: rhesus monkey, in vivo
# Mus musculus [34] = assay: Antitumor activity in NCr nu/nu mice implanted with SKOV3 xenografts at 40 mg/kg, po; format: functional, organism-based; set-up: dose 40 mg/kg
# [35] = AUC(0-tz) in dog at 5 mg/kg, iv; format: ADME, organism-based, Canis lupus familiaris; set-up: dose 5 mg/kg, route intravenous; conditions: plasma
# Mus musculus [36] = assay: Antitumor activity in NCr nu/nu mice implanted with H125 NSC xenografts at 40 mg/kg, po; format: functional, organism-based; set-up: dose 40 mg/kg
# [37] = Tmax in rat at 15 mg/kg, po; format: ADME, organism-based; set-up: dose 15 mg/kg, route oral; conditions: in vivo
smiles,measurement,setting,value
CCN(CC)CC#CC(=O)Nc1ccc2ncnc(Nc3ccc(F)c(Cl)c3)c2c1,pIC50,[1],7.34
same,pIC50,[2],6.51
same,pIC50,[3],8.12
same,pIC50,[4],8.17
same,pIC50,[5],8.51
O=C(C#CCCN1CCOCC1)Nc1cc2c(Nc3ccc(F)c(Br)c3)ncnc2cn1,pIC50,[1],9.15
same,pIC50,[2],9.00
same,pIC50,[3],9.30
same,pIC50,[4],8.35
same,pIC50,[5],8.82
C#CC(=O)Nc1cc2c(Nc3cccc(Br)c3)ncnc2cn1,pIC50,[1],8.62
same,pIC50,[2],7.89
same,pIC50,[4],7.82
same,pIC50,[5],9.22
CC(C)N(CC#CC(=O)Nc1ccc2ncnc(Nc3ccc(F)c(Cl)c3)c2c1)C(C)C,pIC50,[1],8.55
same,pIC50,[3],7.19
CCCCN(CC#CC(=O)Nc1cc2c(Nc3ccc(F)c(Cl)c3)ncnc2cn1)CCCC,pIC50,[1],7.17
same,pIC50,[2],7.14
same,pIC50,[3],6.49
same,pIC50,[4],7.31
same,pIC50,[5],7.77
O=C(C#CCCN1CCOCC1)Nc1ccc2ncnc(Nc3ccc(F)c(Cl)c3)c2c1,pIC50,[1],8.64
same,pIC50,[2],8.37
same,pIC50,[3],8.12
same,pIC50,[4],7.92
same,pIC50,[5],8.77
CN1CCN(CCC#CC(=O)Nc2cc3c(Nc4ccc(F)c(Cl)c4)ncnc3cn2)CC1,bioavailability,[6],11.4%
same,Activity,Mus musculus [7],Active
same,pIC50,[1],9.15
same,AUC,[8],485 ng·h/mL
same,IC50,[9],> 50000 nM
same,Tmax,[10],3.5 h
same,Vd,[11],0.93 L/kg
same,pIC50,[12],9.10
same,AUC,[13],703 ng·h/mL
same,half-life,[14],1.86 h
same,Tmax,[15],1 h
same,clearance,[16],85.8 mL/min/kg
same,Cmax,[17],4180 ng/mL
same,clearance,[18],119 mL/min/kg
same,pIC50,[2],8.92
same,pIC50,Insulin receptor,< 4.30
same,half-life,[19],0.83 h
same,pIC50,[3],9.00
same,Vd,[20],3.1 L/kg
same,AUC,[21],240 ng·h/mL
same,bioavailability,[22],67.8%
same,Cmax,[23],56.3 ng/mL
same,Vd,[24],1.7 L/kg
same,pIC50,[25],< 4.30
same,Activity,Mus musculus [26],Active
same,AUC,[27],15200 ng·h/mL
same,clearance,[28],11.5 mL/min/kg
same,Cmax,[29],83.5 ng/mL
same,AUC,[30],1190 ng·h/mL
same,half-life,[31],0.37 h
same,Activity,Mus musculus [32],Active
same,bioavailability,[33],6.75%
same,Activity,Mus musculus [34],Active
same,AUC,[35],7470 ng·h/mL
same,Activity,Mus musculus [36],Active
same,Tmax,[37],4.7 h
CC#CC(=O)Nc1cc2c(Nc3ccc(F)c(Cl)c3)ncnc2cn1,pIC50,[1],8.96
same,pIC50,[2],9.30
same,pIC50,[3],7.62
CC(C)N(CC#CC(=O)Nc1cc2c(Nc3ccc(F)c(Cl)c3)ncnc2cn1)C(C)C,pIC50,[1],< 6.00
same,pIC50,[2],6.27
same,pIC50,[3],7.44
same,pIC50,[4],7.14
same,pIC50,[5],7.36
CC#CC(=O)Nc1ccc2ncnc(Nc3cccc(Br)c3)c2c1,pIC50,[1],7.77
same,pIC50,[2],7.92
C#CC(=O)Nc1ccc2ncnc(Nc3cccc(Br)c3)c2c1,pIC50,[1],8.72
same,pIC50,[2],8.77
CCCCN(CC#CC(=O)Nc1ccc2ncnc(Nc3ccc(F)c(Cl)c3)c2c1)CCCC,pIC50,[1],6.33
same,pIC50,[2],6.20
same,pIC50,[3],7.49
same,pIC50,[4],7.96
same,pIC50,[5],7.40
O=C(C#CCN1CCOCC1)Nc1cc2c(Nc3ccc(F)c(Cl)c3)ncnc2cn1,pIC50,[1],7.59
same,pIC50,[2],8.21
same,pIC50,[3],7.66
same,pIC50,[4],7.85
same,pIC50,[5],8.51
CCN(CC)CCC#CC(=O)Nc1ccc2ncnc(Nc3ccc(F)c(Cl)c3)c2c1,pIC50,[1],8.59
same,pIC50,[2],7.80
same,pIC50,[3],7.64
same,pIC50,[4],8.35
same,pIC50,[5],8.74
CCN(CC)CC#CC(=O)Nc1cc2c(Nc3ccc(F)c(Cl)c3)ncnc2cn1,pIC50,[1],6.22
same,pIC50,[2],6.19
same,pIC50,[3],6.94
same,pIC50,[4],7.32
same,pIC50,[5],7.82
O=C(C#CCCN1CCOCC1)Nc1cc2c(Nc3ccc(F)c(Cl)c3)ncnc2cn1,pIC50,[1],9.10
same,pIC50,[2],9.00
same,pIC50,[3],8.30
same,pIC50,[4],8.74
same,pIC50,[5],8.89
O=C(C#CCN1CCOCC1)Nc1ccc2ncnc(Nc3ccc(F)c(Cl)c3)c2c1,pIC50,[1],6.52
same,pIC50,[2],6.64
same,pIC50,[3],6.76
same,pIC50,[4],7.51
same,pIC50,[5],7.07
O=C(C#CCCN1CCCCC1)Nc1cc2c(Nc3ccc(F)c(Cl)c3)ncnc2cn1,pIC50,[1],8.68
same,pIC50,[2],8.74
same,pIC50,[3],8.70
same,pIC50,[4],8.37
same,pIC50,[5],9.05
CCCCC#CC(=O)Nc1cc2c(Nc3ccc(F)c(Cl)c3)ncnc2cn1,pIC50,[1],8.27
same,pIC50,[2],8.15
same,pIC50,[3],7.70
same,pIC50,[4],8.35
same,pIC50,[5],7.82
O=C(C#CCO)Nc1ccc2ncnc(Nc3ccc(F)c(Cl)c3)c2c1,pIC50,[1],8.68
same,pIC50,[2],8.14
same,pIC50,[3],7.37
same,pIC50,[4],7.60
same,pIC50,[5],8.85
CN1CCN(CCC#CC(=O)Nc2cc3c(Nc4ccc(F)c(Br)c4)ncnc3cn2)CC1,pIC50,[1],9.30
same,pIC50,[2],9.10
same,pIC50,[3],8.46
same,pIC50,[4],8.57
same,pIC50,[5],8.96
CCCC#CC(=O)Nc1cc2c(Nc3ccc(F)c(Cl)c3)ncnc2cn1,pIC50,[1],8.42
same,pIC50,[2],8.62
same,pIC50,[3],6.77
same,pIC50,[4],8.02
same,pIC50,[5],8.77
